Results reported in US20230085307A1, “PYRIDAZINONE COMPOUND AND HERBICIDE” (NISSAN CHEMICAL CORPORATION, priority 2019, published 2023).

Legend:
late watergrass = assay: Test Example 1: herbicidal activity, application before weed generation under submerged conditions (Table 16, symbol A); format: in vivo, late watergrass (Echinochloa oryzicola); conditions: for Herbicidal effect, A: late watergrass: amount of applied herbicide 320 g/ha
In short: (§1)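 Submerged Wagner pots (alluvial soil, 4 cm water) sown with weed seeds and planted with 2.5-leaf rice seedlings; emulsifiable concentrate diluted in water applied to water surface on sowing day. Held in greenhouse at 25-30 °C; injury scored 0-5 by herbicidal rate after three weeks.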

Japanese bulrush = assay: Test Example 1: herbicidal activity, application before weed generation under submerged conditions (Table 16, symbol B); format: in vivo, Japanese bulrush (Schoenoplectus juncoides); conditions: for Herbicidal effect, B: Japanese bulrush: amount of applied herbicide 320 g/ha
In short: as §1

oval-leafed pondweed = assay: Test Example 1: herbicidal activity, application before weed generation under submerged conditions (Table 16, symbol C); format: in vivo, oval-leafed pondweed (Monochoria vaginalis); conditions: for Herbicidal effect, C: oval-leafed pondweed: amount of applied herbicide 320 g/ha
In short: as §1

barnyard grass [1] = assay: Test Example 3: herbicidal effect by foliage application, Wagner pot (Table 18, symbol H); format: in vivo, barnyard grass (Echinochloa crus-galli); conditions: for herbicidal effect on H: barnyard grass: amount of applied herbicide 320 g/ha
In short: (§2)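 Plants were sown in alluvial soil held under 0.1–0.5 cm standing water and grown 14 days in a greenhouse at 25–30 °C. An emulsifiable formulation, water-diluted to the set dose, was then sprayed onto the foliage, and effects were scored three weeks later using previously defined criteria.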

Chinese sprangletop = assay: Test Example 3: herbicidal effect by foliage application, Wagner pot (Table 18, symbol D); format: in vivo, chinese sprangletop (Leptochloa chinensis); conditions: for herbicidal effect on D: Chinese sprangletop: amount of applied herbicide 320 g/ha
In short: as §2

rice flat sedge = assay: Test Example 3: herbicidal effect by foliage application, Wagner pot (Table 18, symbol E); format: in vivo, rice flat sedge (Cyperus iria); conditions: for herbicidal effect on E: rice flat sedge: amount of applied herbicide 320 g/ha
In short: as §2

southern crabgrass [2] = assay: Test Example 5: herbicidal effect by foliage application, plastic box (Table 20, symbol F); format: in vivo, southern crabgrass (Digitaria ciliaris); conditions: foliage application
In short: (§3)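 Sow seeds spot-wise in sterilized diluvial soil; cover with ~1.5 cm soil. Grow 14 days in greenhouse, 25° C. to 30° C. Spray foliage with emulsion diluted to predetermined amount. Rate effect after 3 weeks.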

green foxtail [3] = assay: Test Example 5: herbicidal effect by foliage application, plastic box (Table 20, symbol G); format: in vivo, green foxtail (Setaria viridis); conditions: foliage application
In short: as §3

barnyard grass [4] = assay: Test Example 5: herbicidal effect by foliage application, plastic box (Table 20, symbol H); format: in vivo, barnyard grass (Echinochloa crus-galli); conditions: foliage application
In short: as §3

wild oat = assay: Test Example 5: herbicidal effect by foliage application, plastic box (Table 20, symbol I); format: in vivo, wild oat (Avena fatua); conditions: foliage application
In short: as §3

blackgrass = assay: Test Example 5: herbicidal effect by foliage application, plastic box (Table 20, symbol J); format: in vivo, blackgrass (Alopecurus myosuroides); conditions: foliage application
In short: as §3

Italian ryegrass = assay: Test Example 5: herbicidal effect by foliage application, plastic box (Table 20, symbol K); format: in vivo, Italian ryegrass (Lolium multiflorum); conditions: foliage application
In short: as §3

windgrass = assay: Test Example 5: herbicidal effect by foliage application, plastic box (Table 20, symbol L); format: in vivo, windgrass (Apera spica-venti); conditions: foliage application
In short: as §3

velvetleaf [5] = assay: Test Example 5: herbicidal effect by foliage application, plastic box (Table 20, symbol M); format: in vivo, velvetleaf (Abutilon theophrasti); conditions: foliage application
In short: as §3

lambsquarters [6] = assay: Test Example 5: herbicidal effect by foliage application, plastic box (Table 20, symbol O); format: in vivo, lambsquarters (Chenopodium album); conditions: foliage application
In short: as §3

persian speedwell = assay: Test Example 5: herbicidal effect by foliage application, plastic box (Table 20, symbol R); format: in vivo, Persian speedwell (Veronica persica); conditions: foliage application
In short: as §3

chickweed = assay: Test Example 5: herbicidal effect by foliage application, plastic box (Table 20, symbol P); format: in vivo, common chickweed (Stellaria media); conditions: foliage application, 320 g/ha, three weeks after application
In short: as §3

southern crabgrass [7] = assay: Test Example 4: herbicidal effect by soil treatment (Table 19, symbol F); format: in vivo, southern crabgrass (Digitaria ciliaris); conditions: amount of applied herbicide 320 g/ha
In short: (§4)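 Soil-surface application: an emulsion agent diluted with water to the predetermined dose is sprayed uniformly over seeds lying under roughly 1.5 cm of sterilized diluvial soil. Boxes stay in a greenhouse at 25° C. to 30° C. Three weeks later, each species is graded on previously defined criteria.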

green foxtail [8] = assay: Test Example 4: herbicidal effect by soil treatment (Table 19, symbol G); format: in vivo, green foxtail (Setaria viridis); conditions: amount of applied herbicide 320 g/ha
In short: as §4

barnyard grass [9] = assay: Test Example 4: herbicidal effect by soil treatment (Table 19, symbol H); format: in vivo, barnyard grass (Echinochloa crus-galli); conditions: amount of applied herbicide 320 g/ha
In short: as §4

velvetleaf [10] = assay: Test Example 4: herbicidal effect by soil treatment (Table 19, symbol M); format: in vivo, velvetleaf (Abutilon theophrasti); conditions: amount of applied herbicide 320 g/ha
In short: as §4

redroot pigweed [11] = assay: Test Example 4: herbicidal effect by soil treatment (Table 19, symbol N); format: in vivo, redroot pigweed (Amaranthus retroflexus); conditions: amount of applied herbicide 320 g/ha
In short: as §4

lambsquarters [12] = assay: Test Example 4: herbicidal effect by soil treatment (Table 19, symbol O); format: in vivo, lambsquarters (Chenopodium album); conditions: amount of applied herbicide 320 g/ha
In short: as §4

redroot pigweed [13] = assay: Test Example 5: herbicidal effect by foliage application, plastic box (Table 20, symbol N); format: in vivo, redroot pigweed (Amaranthus retroflexus); conditions: foliage application, 320 g/ha, three weeks after application
In short: as §3

[14] = 80 g/ha, 3 weeks after application
[15] = 320 g/ha, three weeks after application

Structure (SMILES): CC#CCOc1ccc(-c2sc3ccccc3c2-c2c(O)c(C)nn(C)c2=O)cc1 [1-219]
- Herbicidal effect on A: late watergrass (grade 0-5) (late watergrass; 80 g/ha applied herbicide): 5 (Herbicidal rate of 90% or more (almost completely withered))
- Herbicidal effect on B: Japanese bulrush (grade 0-5) (Japanese bulrush; 80 g/ha applied herbicide): 3 (Herbicidal rate of 40% or more and less than 70%)
- Herbicidal effect on C: oval-leafed pondweed (grade 0-5) (oval-leafed pondweed; 80 g/ha applied herbicide): 3 (Herbicidal rate of 40% or more and less than 70%)
- herbicidal effect on H (barnyard grass), rating 0-5 (barnyard grass [1]; 80 g/ha): 5 (Herbicidal rate of 90% or more (almost completely withered))
- herbicidal effect on D (Chinese sprangletop), rating 0-5 (Chinese sprangletop; 80 g/ha): 5 (Herbicidal rate of 90% or more (almost completely withered))
- herbicidal effect on E (rice flat sedge), rating 0-5 (rice flat sedge; 80 g/ha): 3 (Herbicidal rate of 40% or more and less than 70%)
- effect on southern crabgrass (F) (southern crabgrass [2]; [14]): 3 (Herbicidal rate of 40% or more and less than 70%)
- effect on green foxtail (G) (green foxtail [3]; [14]): 5 (Herbicidal rate of 90% or more (almost completely withered))
- effect on barnyard grass (H) (barnyard grass [4]; [14]): 4 (Herbicidal rate of 70% or more and less than 90%)
- effect on wild oat (I) (wild oat; [14]): 1 (Herbicidal rate of 5% or more and less than 20%)
- effect on blackgrass (J) (blackgrass; [14]): 4 (Herbicidal rate of 70% or more and less than 90%)
- effect on Italian ryegrass (K) (Italian ryegrass; [14]): 5 (Herbicidal rate of 90% or more (almost completely withered))
- effect on windgrass (L) (windgrass; [14]): 0 (Herbicidal rate of 5% or less (almost no effect))
- effect on velvetleaf (M) (velvetleaf [5]; [14]): 4 (Herbicidal rate of 70% or more and less than 90%)
- effect on lambsquarters (O) (lambsquarters [6]; [14]): 5 (Herbicidal rate of 90% or more (almost completely withered))
- effect on persian speedwell (R) (persian speedwell; [14]): 5 (Herbicidal rate of 90% or more (almost completely withered))

Structure (SMILES): CCc1nn(C)c(=O)c(-c2c(-c3ccccc3OC)sc3ccc(F)cc23)c1O [2-414]
- Herbicidal effect, A: late watergrass (late watergrass): 2 (Herbicidal rate of 20% or more and less than 40%)
- Herbicidal effect, B: Japanese bulrush (Japanese bulrush): 3 (Herbicidal rate of 40% or more and less than 70%)
- Herbicidal effect, C: oval-leafed pondweed (oval-leafed pondweed): 2 (Herbicidal rate of 20% or more and less than 40%)
- herbicidal effect on H: barnyard grass (barnyard grass [1]): 4 (Herbicidal rate of 70% or more and less than 90%)
- herbicidal effect on D: Chinese sprangletop (Chinese sprangletop): 3 (Herbicidal rate of 40% or more and less than 70%)
- herbicidal effect on E: rice flat sedge (rice flat sedge): 3 (Herbicidal rate of 40% or more and less than 70%)
- F: southern crabgrass, herbicidal effect grade (southern crabgrass [2]; [15]): 1 (Herbicidal rate of 5% or more and less than 20%)
- G: green foxtail, herbicidal effect grade (green foxtail [3]; [15]): 2 (Herbicidal rate of 20% or more and less than 40%)
- H: barnyard grass, herbicidal effect grade (barnyard grass [4]; [15]): 3 (Herbicidal rate of 40% or more and less than 70%)
- I: wild oat, herbicidal effect grade (wild oat; [15]): 0 (Herbicidal rate of 5% or less (almost no effect))
- J: blackgrass, herbicidal effect grade (blackgrass; [15]): 2 (Herbicidal rate of 20% or more and less than 40%)
- K: Italian ryegrass, herbicidal effect grade (Italian ryegrass; [15]): 1 (Herbicidal rate of 5% or more and less than 20%)
- L: windgrass, herbicidal effect grade (windgrass; [15]): 3 (Herbicidal rate of 40% or more and less than 70%)
- M: velvetleaf, herbicidal effect grade (velvetleaf [5]; [15]): 3 (Herbicidal rate of 40% or more and less than 70%)
- O: lambsquarters, herbicidal effect grade (lambsquarters [6]; [15]): 3 (Herbicidal rate of 40% or more and less than 70%)
- P: chickweed, herbicidal effect grade (chickweed): 5 (Herbicidal rate of 90% or more (almost completely withered))
- R: persian speedwell, herbicidal effect grade (persian speedwell; [15]): 5 (Herbicidal rate of 90% or more (almost completely withered))

Structure (SMILES): Cc1nn(C)c(=O)c(-c2c(-c3ccc(OCC=C(Cl)Cl)cc3)sc3ccc(F)cc23)c1O [2-442]
- Herbicidal effect, A: late watergrass (late watergrass): 3 (Herbicidal rate of 40% or more and less than 70%)
- Herbicidal effect, B: Japanese bulrush (Japanese bulrush): 2 (Herbicidal rate of 20% or more and less than 40%)
- Herbicidal effect, C: oval-leafed pondweed (oval-leafed pondweed): 2 (Herbicidal rate of 20% or more and less than 40%)
- herbicidal effect on H: barnyard grass (barnyard grass [1]): 5 (Herbicidal rate of 90% or more (almost completely withered))
- herbicidal effect on D: Chinese sprangletop (Chinese sprangletop): 2 (Herbicidal rate of 20% or more and less than 40%)
- herbicidal effect on E: rice flat sedge (rice flat sedge): 3 (Herbicidal rate of 40% or more and less than 70%)
- herbicidal effect, F: southern crabgrass (southern crabgrass [7]): 0 (Herbicidal rate of 5% or less (almost no effect))
- herbicidal effect, G: green foxtail (green foxtail [8]): 0 (Herbicidal rate of 5% or less (almost no effect))
- herbicidal effect, H: barnyard grass (barnyard grass [9]): 0 (Herbicidal rate of 5% or less (almost no effect))
- herbicidal effect, M: velvetleaf (velvetleaf [10]): 0 (Herbicidal rate of 5% or less (almost no effect))
- herbicidal effect, N: redroot pigweed (redroot pigweed [11]): 3 (Herbicidal rate of 40% or more and less than 70%)
- herbicidal effect, O: lambsquarters (lambsquarters [12]): 1 (Herbicidal rate of 5% or more and less than 20%)
- F: southern crabgrass, herbicidal effect grade (southern crabgrass [2]; [15]): 3 (Herbicidal rate of 40% or more and less than 70%)
- G: green foxtail, herbicidal effect grade (green foxtail [3]; [15]): 3 (Herbicidal rate of 40% or more and less than 70%)
- H: barnyard grass, herbicidal effect grade (barnyard grass [4]; [15]): 4 (Herbicidal rate of 70% or more and less than 90%)
- M: velvetleaf, herbicidal effect grade (velvetleaf [5]; [15]): 4 (Herbicidal rate of 70% or more and less than 90%)
- N: redroot pigweed, herbicidal effect grade (redroot pigweed [13]): 5 (Herbicidal rate of 90% or more (almost completely withered))
- O: lambsquarters, herbicidal effect grade (lambsquarters [6]; [15]): 5 (Herbicidal rate of 90% or more (almost completely withered))

Structure (SMILES): CCCC(=O)Oc1c(C)nn(C)c(=O)c1-c1c(-c2ccc(C(F)(F)F)cc2)sc2cc(C)c(C)cc12 [5-097]
- Herbicidal effect, A: late watergrass (late watergrass): 3 (Herbicidal rate of 40% or more and less than 70%)
- Herbicidal effect, B: Japanese bulrush (Japanese bulrush): 0 (Herbicidal rate of 5% or less (almost no effect))
- Herbicidal effect, C: oval-leafed pondweed (oval-leafed pondweed): 0 (Herbicidal rate of 5% or less (almost no effect))
- herbicidal effect on barnyard grass (H) (barnyard grass [1]; 320 g/ha): 4 (Herbicidal rate of 70% or more and less than 90%)
- herbicidal effect on Chinese sprangletop (D) (Chinese sprangletop; 320 g/ha): 2 (Herbicidal rate of 20% or more and less than 40%)
- herbicidal effect on rice flat sedge (E) (rice flat sedge; 320 g/ha): 1 (Herbicidal rate of 5% or more and less than 20%)
- herbicidal effect on southern crabgrass (F) (southern crabgrass [2]; [15]): 0 (Herbicidal rate of 5% or less (almost no effect))
- herbicidal effect on green foxtail (G) (green foxtail [3]; [15]): 0 (Herbicidal rate of 5% or less (almost no effect))
- herbicidal effect on barnyard grass (H) (barnyard grass [4]; [15]): 0 (Herbicidal rate of 5% or less (almost no effect))
- herbicidal effect on wild oat (I) (wild oat; [15]): 0 (Herbicidal rate of 5% or less (almost no effect))
- herbicidal effect on blackgrass (J) (blackgrass; [15]): 0 (Herbicidal rate of 5% or less (almost no effect))
- herbicidal effect on Italian ryegrass (K) (Italian ryegrass; [15]): 0 (Herbicidal rate of 5% or less (almost no effect))
- herbicidal effect on windgrass (L) (windgrass; [15]): 0 (Herbicidal rate of 5% or less (almost no effect))
- herbicidal effect on velvetleaf (M) (velvetleaf [5]; [15]): 0 (Herbicidal rate of 5% or less (almost no effect))
- herbicidal effect on lambsquarters (O) (lambsquarters [6]; [15]): 0 (Herbicidal rate of 5% or less (almost no effect))
- herbicidal effect on persian speedwell (R) (persian speedwell; [15]): 0 (Herbicidal rate of 5% or less (almost no effect))
